Results published in US20260355239A1, “COMBINATION OF A T CELL THERAPY AND CONTINUOUS OR INTERMITTENT DGK INHIBITOR DOSING” (Juno Therapeutics, Inc., priority 2022, published 2026).

How the values were obtained:
[1] = test system: A549.CD19 and Granta-519 tumor spheroids; assay: Cytolytic activity of chronically stimulated, concurrently treated CAR-T cells, 3D spheroids; type: cell-based, human; conditions: concurrent treatment during chronic stimulation, day 9
Method: (§1) To simulate conditions of chronic stimulation, approximately 20,000 anti-CD19 CAR-expressing T cells of a combined CAR-T cell composition produced as described in Example 2 from two healthy adult donors were incubated with 30 µg/mL of plate-bound CAR-specific anti-idiotypic antibody (see, e.g., WO2018/023100) at 37 °C for a period of seven days. During this seven-day period, engineered CAR T cells were concurrently treated with Compound 17(0.1-1000 nM) or a vehicle control added at day 0.
To further assess activity of chronically stimulated cell, the chronically stimulated CAR-T cells that had been concurrently treated with DGKi were incubated with A549 CD19+ tumor spheroids or Granta-519 tumor spheroids to rechallenge the CAR-T cells at an effector to target ratio of 1:2 for up to 14 days. The tumor spheroids were engineered to express a red fluorescent dye to permit monitoring of tumor cell lysis by microscopy during the assay.
The antigen-specific cytolytic activity of the chronically stimulated CAR-expressing T cells was assessed by monitoring fluorescence (indicative of tumor cell lysis) over time. The tumor volume (normalized to time zero) was measured as the number of red calibrated units (RCU)×μm^2 area. […] Duplicate values for cell compositions manufactured from the two different healthy donors are shown.

[2] = test system: CD19-antigen expressing target cells (K562.CD19, Granta-519, Raji); assay: CAR-T cell cytolytic function in co-culture; type: cell-based, human; conditions: 2.5:1 effector:target, compound present during co-culture
Source text: T cell compositions containing T cells expressing an exemplary anti-CD19 CAR were generated from leukapheresis samples from two healthy human adult donors by a process that included immunoaffinity-based selection of T cells by separately selecting CD4+ and CD8+ cells from the samples, resulting in two compositions enriched for CD4+ and CD8+ cells, respectively, per donor. Cells of the enriched CD4+ and CD8+ compositions were separately activated with anti-CD3/anti-CD28 beads and subjected to lentiviral transduction with a vector encoding an anti-CD19 CAR. […]
Prior to use, the cryopreserved CD4+ and CD8+ CAR-engineered cell compositions were thawed and combined at approximately a 1:1 CD4:CD8 ratio for each donor to prepare a combined CD4+ CAR+ and CD8+ CAR+ T cell composition. The effects of treatment with Compound 17 at various concentrations (0.1 nM, 1 nM, 10 nM, 100 nM, or 1000 nM) added at day 0 during stimulation of the combined CAR-T cell composition with a plate-bound CAR-specific anti-idiotypic antibody (see, e.g., WO2018/023100) or during co-culture with CD19-expressing cells was then assessed.
The cytolytic function of T cells treated with Compound 17 was assessed following co-culture of the combined CAR-T cell composition with various CD19-expressing lymphoma cells at a 2.5:1 effector:target ratio in the presence of Compound 17. […]

Granta-519 cells = assay: Rescue treatment: cytolytic activity of chronically stimulated CAR-T cells, 2D, Granta-519; type: cell-based, human; conditions: higher concentrations, 2D co-culture
[3] = test system: HPV-expressing CaSki cells; assay: Rescue treatment: cytolytic function of chronically stimulated eTCR T cells; type: cell-based, human; conditions: 100 nM, 2.5:1 effector:target, 10 or 20 μg/mL anti-Vbeta chronic stimulation
Source text: Primary human CD4+ and CD8+ T cells were isolated from healthy donors by immunoaffinity-based methods. The isolated CD4+ and CD8+ T cells were combined and stimulated with an anti-CD3/anti-CD28 reagent, and then were transduced with a lentiviral vector encoding an anti-human papillomavirus 16 (anti-HPV16) eTCR. The nucleotide sequences encoding the beta chain and the alpha chain of the eTCR were separated by a sequence encoding a 2A ribosome skip element. Following transduction, the cells were cultured in media containing human serum and cytokines for 9-10 days prior to further assessment.
To assess the effects of rescue treatment with Compound 17 on cytolytic function, eTCR cells were stimulated for six days using 10 μg/mL or 20 μg/mL plate-bound antibody against the TCR Vbeta chain in the absence of Compound 17.
Following chronic stimulation, the eTCR-T cells were co-cultured with HPV-expressing CaSki cells at a 2.5:1 effector:target ratio in the presence of Compound 17 at 100 nM. As a control, chronically stimulated eTCR cells were co-cultured with CaSki cells in the absence of Compound 17. The CaSki cells were transduced with NucLight Red (NLR) and tumor cell number was monitored by Incucyte®.

[4] = test system: CD19-expressing lymphoma cells (K562.CD19, Granta-519, Raji); assay: Cytolytic activity of chronically stimulated, concurrently treated CAR-T cells, 2D co-culture; type: cell-based, human; conditions: concurrent treatment during chronic stimulation; 2D re-challenge without compound
Method: as §1
Stimulated CAR T cells were then re-challenged with CD19-expressing tumor cells or tumor spheroids in the absence of Compound 17, and cytolytic activity and cytokine production were assessed.
To assess cytolytic function, the stimulated CAR-T cell composition was co-cultured with various CD19-expressing lymphoma cells at a 2.5:1 effector:target ratio. The tumor cells were engineered to express NucLight Red (NLR) and tumor cell number was monitored by Incucyte®. […] Duplicate values for cell compositions manufactured from the two different healthy donors are shown.

Raji cells = assay: Rescue treatment: cytolytic activity of chronically stimulated CAR-T cells, 2D, Raji; type: cell-based, human; conditions: higher concentrations, 2D co-culture
Method: Anti-CD19 CAR-expressing T cells, produced as described in Example 2, were chronically stimulated with plate-bound CAR-specific anti-idiotypic antibody for seven days as described in Example 3, but in the absence of Compound 17 during chronic stimulation. Instead, chronically stimulated CAR T cells were treated with Compound 17 during re-challenge with CD19-expressing tumor cells, after which cytolytic activity and cytokine production were assessed.
The chronically stimulated CAR-T cells were incubated with various CD19-expressing lymphoma cells at a 2.5:1 effector:target ratio in the presence of DGKi (0-1000 nM). The tumor cells were labeled with NucLight Red (NLR) and tumor cell number was monitored by Incucyte®.

[5] = Compound 17: 0.3 mg/kg oral once daily Days 1-30 with CAR T cells, or KO CAR T cells
[6] = Compound 17: 0.3 mg/kg oral once daily Days 1-30 with CAR T cells, or KO CAR T cells, vs CAR T cells without DGK KO alone

Method for Raji-rFluc cells: For assessing in vivo anti-tumor effects, immunodeficient NSG mice were injected intravenously with 0.5×10^6 Raji-rFluc cells. […] This dose of CAR-expressing T cells was not expected to achieve complete tumor rejection.
For assessing tumor burden by bioluminescence imaging, mice received intraperitoneal injections of luciferin substrate resuspended in phosphate-buffered saline. Tumor burden and survival of treated mice were assessed until Day 50. In addition, flow cytometry for assessing circulating CAR T cell number and CD4 and CD8 expression was performed on Days 5, 12, 19, and 26. CAR expression was assessed using an anti-idiotypic (anti-ID) antibody specific for the CAR.

SMILES: CC[C@H]1CN([C@@H](CC)c2ccc(C(F)(F)F)cc2)[C@H](CC)CN1c1nc(=O)n(C)c2ccc(C#N)nc12 [Compound 17, 4-((2S,5R)-2,5-diethyl-4-((S)-1-(4-(trifluoromethyl)phenyl)propyl)piperazin-1-yl)-1-methyl-2-oxo-1,2-dihydropyrido[3,2-d]pyrimidine-6-carbonitrile]
- cytolytic activity of CAR T cells (normalized tumor volume) [1]: modestly reduced the cytolytic activity of the CAR T cells
- cytolytic function (specific lysis) [2]: did not affect cytolytic function
- cytolytic activity of CAR T cells against Granta-519 cells (Granta-519 cells): improved the cytolytic activity of CAR T cells against K562.CD19 and Granta-519 cells
- cytolytic function of chronically stimulated eTCR cells [3]: able to improve cytolytic function of chronically stimulated eTCR cells
- CAR-T cell cytolytic activity against CD19-expressing lymphoma cells [4]: decreased CAR-T cell cytolytic activity against the CD19-expressing lymphoma cells in a dose-dependent manner
- cytolytic activity of CAR T cells against Raji cells (Raji cells): not Raji cells
- CAR T cell expansion and/or persistence (Raji-rFluc cells; [5]): improved CAR T cell expansion and/or persistence
- tumor burden (Raji-rFluc cells; [5]): tumor burden was reduced
- anti-tumor efficacy (tumor control index) (Raji-rFluc cells; [6]): improved anti-tumor efficacy
- survival (Raji-rFluc cells; [6]): improved survival
- tumor burden, survival, and CAR T cell expansion and/or persistence vs DGKα/ζ dual KO CAR T cells (Raji-rFluc cells; continuous DGKi administration with CAR T cells): comparable to those achieved with administration of DGKα/ζ dual KO CAR T cells
